Source: patent EP2719375A1, “Cannabinoids for the treatment of cancers dependent on hedgehog mechanisms” (Max-Planck-Gesellschaft zur Förderung der Wissenschaften …, priority 2012, dated 2014)
“Also recorded” adds a separate entry of the source. Read-outs that look alike come from different tables or passages of the source.

Columns and labels:
Ci155 = test: Drosophila wing disc assay, Ci155 staining; settings: LppRNAi wing discs, DOPC liposomes, 2 hours
Protocol: (§1) Imaginal discs were fixed and stained as previously described (Marois et al., 2006). Antibodies were diluted as follows: anti-Ci 2A1 1:10 (Wang and Holmgren, Development, 126(22): p. 5097-106 (1999)), anti-Smo 1:50 (Lum et al., Mol Cell, 12(5): p. 1261-74 (2003)).
(§2) All quantified immunostaining was performed on discs that were dissected, fixed, stained and imaged in parallel using the same microscope settings. To quantify Ci155 and Smo staining intensities, three apical sections 0.7 µm apart were projected using maximal intensity in ImageJ. For each image, two rectangles of 100 pixels parallel to the A/P axis by 351 pixels parallel to the D/V axis were selected and centered at the A/P boundary in ventral and dorsal compartments. Average pixel intensity was determined as a function of distance from A/P boundary using PlotProfile and plotted using Microsoft Excel. All A/P boundaries were determined according to anti-Ci155 coimmunostaining. To estimate the significance of changes in staining intensities in discs of different genotypes, we measured Smo or Ci staining intensity at the same distance from the A/P boundary in each disc and calculated p values using Excel.
(§3) The assay was performed as previously described (Khaliullina et al., Development, 136(24): p. 4111-21 (2009)). Endocannabinoids were applied in DOPC vesicles at concentrations of up to 200µM.

Smo = molecular target: T1, Smo (Drosophila melanogaster, UniProt P91682); test: Drosophila wing disc assay, Smo staining; settings: for ectopic Smo accumulation / stabilization: LppRNAi wing discs, DOPC liposomes, 2 hours; for effects on Hh signaling in Drosophila: wing discs, judged from Smo and Ci155 accumulation
T1 construct: from tissue; host or cells: explanted wing imaginal discs from wild type and LppRNAi Drosophila larvae
T1 sequence (P91682 32-1036): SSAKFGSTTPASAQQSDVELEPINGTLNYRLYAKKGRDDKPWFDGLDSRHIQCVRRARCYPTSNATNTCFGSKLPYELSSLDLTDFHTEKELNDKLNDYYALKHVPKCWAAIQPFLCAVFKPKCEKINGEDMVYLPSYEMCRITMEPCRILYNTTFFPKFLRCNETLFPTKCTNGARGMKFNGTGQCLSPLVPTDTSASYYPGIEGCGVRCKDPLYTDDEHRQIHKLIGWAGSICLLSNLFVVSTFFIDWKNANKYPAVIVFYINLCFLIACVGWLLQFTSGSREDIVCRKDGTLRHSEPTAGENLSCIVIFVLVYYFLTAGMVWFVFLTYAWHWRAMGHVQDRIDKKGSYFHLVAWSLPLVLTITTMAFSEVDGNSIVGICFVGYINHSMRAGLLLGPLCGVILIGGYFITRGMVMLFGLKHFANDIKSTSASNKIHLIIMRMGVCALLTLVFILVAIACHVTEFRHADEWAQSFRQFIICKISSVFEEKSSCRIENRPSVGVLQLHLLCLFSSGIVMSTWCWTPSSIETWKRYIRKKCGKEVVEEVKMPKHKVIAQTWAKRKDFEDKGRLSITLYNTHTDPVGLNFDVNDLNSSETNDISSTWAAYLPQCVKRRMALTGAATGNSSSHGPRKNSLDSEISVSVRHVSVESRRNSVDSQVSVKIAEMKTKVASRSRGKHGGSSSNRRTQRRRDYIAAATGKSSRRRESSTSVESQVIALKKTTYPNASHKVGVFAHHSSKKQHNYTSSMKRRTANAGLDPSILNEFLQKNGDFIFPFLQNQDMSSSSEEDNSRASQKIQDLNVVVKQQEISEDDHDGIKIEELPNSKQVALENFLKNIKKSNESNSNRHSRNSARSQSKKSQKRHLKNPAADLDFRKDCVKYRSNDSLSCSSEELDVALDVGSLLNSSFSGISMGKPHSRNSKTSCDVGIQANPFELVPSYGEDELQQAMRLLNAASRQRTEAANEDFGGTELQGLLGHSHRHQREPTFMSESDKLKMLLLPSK
Protocol: as §1, §2, §3

[1] = tested on: Shh signaling in ShhLIGHT2 cells; test: ShhLIGHT2 signaling assay (Gli-responsive Firefly:Renilla luciferase ratio); assay type: cell-based, mammalian; settings: for inhibits Shh signaling: at 30µM; for effect on signaling in ShhLIGHT2 cells (pure compounds, column fractions): cells stimulated with non-lipoprotein-associated Shh
Protocol: HeLa cells were passaged in DMEM with 10% fetal bovine serum (FBS, Gibco), 50 U/ml penicillin and 50µg/ml streptomycin (Gibco). To prepare non-lipoprotein-associated Shh, HeLa cells were transfected with plasmids encoding human Shh using polyethylenimine (Polysciences) in OptiMem (Invitrogen), then switched Shh-transfected HeLa cells to serum-free media (DMEM +1% Insulin-Transferrin-Selenium mixture (ITS-X, Gibco) 4 h post transfection. After 48 h, conditioned media were centrifuged at 1000 g for 20 min and concentrated using Amicon Ultra -10K (Millipore) for use in the signaling assay. Identically treated media from nontransfected HeLa cells were used as controls.
Shh-LIGHT2 cells (Taipale et al., 2000) were maintained in DMEM + 10% FBS, 150 µg/ml zeocin (Invitrogen) and 400 µg/ml G418 (Invitrogen). 24 h prior to assay, cells were plated at […] in 96-well plates. Cells were then switched to a serum-free medium consisting of DMEM + 1% ITS-X, and supplemented with combinations of Shh and different lipids. Lipids were added in DMSO. Luciferase activity was assayed in cell lysates after 24 h, as instructed by the manufacturer (Dual Glo Luciferase Assay, Promega).

[2] = Shh Light2, ShhLIGHT2 cells stimulated with Shh, serum-free medium, lipid added in DMSO, luciferase after 24 h, read-out: EC50 (inhibits Shh signaling)
[3] = Shh Light2, 24 h, read-out: EC50 (inhibits Shh signaling)

Q: With `CCCCC/C=C\C/C=C\C/C=C\C/C=C\CCCCOC(CO)CO` [2-glyceryl ether (20:4), 2-arachidonyl glyceryl ether] as the molecule, how does the “ectopic Ci155 accumulation” value (Ci155) read?
A: Its value is “no activity”.

Q: What about the “ectopic Smo accumulation / stabilization” value (Smo) of the same molecule?
A: Its value is “no activity”.

Q: What about the “effects on Hh signaling in Drosophila” value (Smo) of the same molecule?
A: The value was “complete inactivity”.

Q: And the EC50 [1, 2]?
A: Its EC50 is 15000 nM.

Q: And the “inhibits Shh signaling” value [1]?
A: Its value is “almost completely”.

Q: With `CC(C)CCC[C@@H](C)[C@H]1CC[C@H]2C3=CC=C4C[C@@H](O)CC[C@]4(C)[C@H]3CC[C@]12C` [7-dehydrocholesterol, reference compound] as the molecule, how does the “ectopic Smo accumulation / stabilization” value (Smo) read?
A: Its value is “neither reversed Smo accumulation”.

Q: What about the “effect on signaling in ShhLIGHT2 cells (pure compounds, column fractions)” value [1] of the same molecule?
A: The value was “inhibited signaling”.

Q: `CCCCCCCCCCCCCCCC(=O)NCCc1ccc(O)c(O)c1` [N-acyl dopamine (16:0)] was tested. Which “ectopic Ci155 accumulation” value (Ci155) did it give?
A: The value was “no activity”.

Q: What about the “ectopic Smo accumulation / stabilization” value (Smo) of the same molecule?
A: The value was “no activity”.

Q: With `CCCCCCCCCCCCCCCCCC(=O)NCCc1ccc(O)c(O)c1` [N-acyl dopamine (18:0)] as the molecule, how does the EC50 [1, 3] read?
A: The EC50 was 5000 nM.

Q: And the inhibition at 30 µM ([1]; Shh Light2, read-out: inhibits Shh signaling by)?
A: Its inhibition at 30 µM is 80%.

Q: Which results are given for `CCCCCCCCCCCCCCCC(=O)NC(CO)C(=O)O` (centres unmarked) [N-acyl serine (16:0)]?
A: ectopic Ci155 accumulation (Ci155): no activity; ectopic Smo accumulation / stabilization (Smo): no activity; EC50 ([1]; Shh Light2, ShhLIGHT2 cells stimulated with Shh, serum-free medium, lipid added in DMSO, read-out: EC50 (increases Shh signaling)): 500 nM; increases Shh signaling by ([1]; Shh-induced Firefly:Renilla increase normalized to 100): 40%; effect on signaling in ShhLIGHT2 cells (pure compounds, column fractions) [1]: stimulated signaling

Q: How did the “ectopic Ci155 accumulation” value (Ci155) turn out when `CCCCCCCCCCCCCCCC(=O)NCCO` [N-acylethanolamide (16:0)] was run?
A: The value was “partially reverses Ci155 accumulation; also recorded: significantly reverses ectopic accumulation of Ci155”.

Q: What about the “ectopic Smo accumulation / stabilization” value (Smo) of the same molecule?
A: Its value is “reverses ectopic Smo stabilization; also recorded: completely reverses ectopic accumulation of Smo”.

Q: And the “effects on Hh signaling in Drosophila” value (Smo)?
A: Its value is “strong negative effects”.

Q: Which “ectopic Ci155 accumulation” value (Ci155) does the source give for `CCCCCCCCCCCCCCCCCC(=O)NCCO` [N-acylethanolamide (18:0)] here?
A: Its value is “not decreased”.

Q: What about the “ectopic Smo accumulation / stabilization” value (Smo) of the same molecule?
A: Its value is “not decreased”.

Q: Which “ectopic Ci155 accumulation” value (Ci155) does the source give for `CCCCCCCC/C=C\CCCCCCCC(=O)NCCO` [N-acylethanolamide (18:1)] here?
A: Its value is “not decreased”.

Q: And the “ectopic Smo accumulation / stabilization” value (Smo)?
A: The value was “not decreased”.

Q: For `CCCCC/C=C\C/C=C\CCCCCCCC(=O)NCCO` [N-acylethanolamide (18:2), linoleylethanolamide], which “EC50 decreased by addition of FAAH inhibitor” value [1] is on record?
A: The value was greater than 10 fold.

Q: And the “EC50 decreased by pre-incubation with lipoproteins” value [1]?
A: Its value is greater than 10 fold.

Q: What about the EC50 [1, 3] of the same molecule?
A: Its EC50 is roughly 15000 nM.

Q: And the EC50 ([1]; Shh Light2, in presence of PF-3845, a selective FAAH inhibitor, read-out: EC50)?
A: The EC50 was 500 nM.

Q: And the “inhibits Shh signaling” value [1]?
A: Its value is “almost completely”.

Q: What about the “EC50 decreased by pre-incubation with lipoproteins” value ([1]; pre-incubated with lipoproteins versus added in DMSO without prior incubation) of the same molecule?
A: The value was “more than 10 fold”.

Q: How did the “ectopic Ci155 accumulation” value (Ci155) turn out when `CCCCC/C=C\C/C=C\C/C=C\C/C=C\CCCC(=O)NCCO` [N-acylethanolamide (20:4), arachidonyl ethanolamide] was run?
A: The value was “not decreased”.

Q: And the “ectopic Smo accumulation / stabilization” value (Smo)?
A: Its value is “not decreased”.

Q: Which EC50 [1, 2] does the source give for `C=C(C)[C@@H]1CCC(C)=C[C@H]1c1c(O)cc(CCCCC)cc1O` [cannabidiol] here?
A: Its EC50 is less than 1000 nM.

Q: `CCCCCc1cc(O)c2c(c1)OC(C)(C)c1ccc(C)cc1-2` [cannabinol] was tested. Which EC50 [1, 2] did it give?
A: The EC50 was less than 1000 nM.

Q: `C=C1CC[C@H](O)C/C1=C/C=C1\CCC[C@]2(C)[C@@H]([C@H](C)CCCC(C)C)CC[C@@H]12` [vitamin D3, reference compound] was tested. Which “ectopic Smo accumulation / stabilization” value (Smo) did it give?
A: Its value is “neither reversed Smo accumulation”.

Q: And the “effect on signaling in ShhLIGHT2 cells (pure compounds, column fractions)” value [1]?
A: The value was “inhibited signaling”.
